Experimental data as given in US10160705B2, “Class of HDAC inhibitors expands the renal progenitor cells population and improves the rate of recovery from acute kidney injury” (University of Pittsburgh—Of the Commonwealth System of …, priority 2011, dated 2018).

System: renal progenitor cells
Assay: In situ hybridization for lhx1a expression in 10-somite embryos (renal progenitor cell expansion)
Type: in vivo
Details: for responders at 0.2 µM / responders at 0.4 µM / responders at 0.8 µM / responders at 1.5 µM / responders at 3 µM / EC50: Danio rerio; for responders at 0.2 µM: 200 nM, read-out: Expansion of Cells (including repeats* and recounts**) 200 nM; for responders at 0.4 µM: 400 nM, read-out: Expansion of Cells (including repeats* and recounts**) 400 nM; for responders at 0.8 µM: 800 nM, read-out: Expansion of Cells (including repeats* and recounts**) 800 nM; for responders at 1.5 µM: read-out: Expansion of Cells (including repeats* and recounts**) 1.5 μM; for responders at 3 µM: read-out: Expansion of Cells (including repeats* and recounts**) 3 μM; for EC50: first pass EC50 from percent expansion (Excel trendline), average where several experiments
Experimental: PTBA was synthesized as described below. Hydroxyurea and aphidicolin were obtained from Sigma-Aldrich.
In situ hybridization and immunocytochemistry: In situ hybridization was performed as previously described with some modifications.142 Hybridization temperature was 65° C. Embryos were blocked in 2% blocking reagent (Roche) with 5% sheep serum in MAB (100 mM maleic acid and 150 mM NaCl [pH 7.5]). Whole-mount immunocytochemistry with 1:25 mouse anti-α6F antibody (Developmental Studies Hybridoma Bank) and 1:100 Cy3 secondary antibody (Jackson ImmunoResearch) was performed as described previously.108 Embryos were embedded in JB-4 for sectioning per the manufacturer's instructions (Polysciences), sectioned at 5 μm, and mounted with Cytoseal 60 (Richard-Allan Scientific).
The remaining PTBA analogs were synthesized.
In situ hybridization for lhx1a was performed as described above. […] Compounds were classified as effective, partially-effective or ineffective based on comparison to the effects of PTBA at a given concentration.
Testing of the compounds is on-going, but for those tested, Table 6 provides first pass EC50s based upon colormetric in situ hybridizations for the Lhx1a mRNA expression levels. After the procedure is run, in situ hybridization is done for the lhx1 mRNA expression and the number of embryos that show an expanded kidney field is manually counted to establish the percent of embryos showing expansion. Then the EC50 is determined by plotting the percent expansion in Excel, graphing the results and using the trendline function to determine the 50 percent point.

[1] = percent of embryos with expanded kidney field
[2] = percent of embryos with expanded kidney field, 1.5 μM
[3] = percent of embryos with expanded kidney field, 3 μM

| Structure (SMILES) | responders at 0.2 µM [1] | responders at 0.4 µM [1] | responders at 0.8 µM [1] | responders at 1.5 µM [2] | responders at 3 µM [3] | EC50 | Expansion of Cells (including repeats* and recounts**) 1.5 μM [2] | Expansion of Cells (including repeats* and recounts**) 3 μM [3] |
| --- | --- | --- | --- | --- | --- | --- | --- | --- |
| Nc1ccccc1NC(=O)CCCCCSc1ccccc1 [UPHD-00049, N-(2-aminophenyl)-6-(phenylsulfanyl)hexanamide] | 5% | 35% | 60% | 95% | 100% | 890 nM |  |  |
| O=C(CCCCCSc1ccccc1)NO [UPHD-00050, N-hydroxy-6-(phenyl-sulfanyl)hexanamide] |  |  | 0% | 0% | 0% | > 3000 nM |  |  |
| O=C(CCCCCSc1ccc(F)cc1)NO [UPHD-00051, 6-[(4-fluoro-phenyl)sulfanyl]-N-hydroxyhexanamide] |  |  |  |  | 86.7% | 1900 nM |  |  |
| O=C(NO)c1ccc(CSc2ccccc2)cc1 [UPHD-00052, N-hydroxy-4-[(phenyl-sulfanyl)methyl]benzamide] | 0% | 0% | 0% | 10% |  | > 3000 nM |  |  |
| Nc1ccccc1NC(=O)CCCCCSc1ccc(F)cc1 [UPHD-00053, N-(2-aminophenyl)-6-[(4-fluoro-phenyl)sulfanyl]hexanamide] | 20% | 5% | 85% | 100% | 100% | 790 nM |  |  |
| COC(=O)CCCCCSc1ccc2ccccc2c1 [UPHD-00057, methyl 6-(naphthalen-2-ylsulfanyl)hexanoate] | 19% | 19% | 11% | 18% | 29% | > 3000 nM |  |  |
| COC(=O)CCCCCSc1ncccn1 [UPHD-00058, methyl 6-(pyrimidin-2-ylsulfanyl)hexanoate] | 17% | 33% | 20% | 28% | 6% | > 3000 nM |  |  |
| O=C(CCCCCSc1ccc2ccccc2c1)NO [UPHD-00059, N-hydroxy-6-(naphthalen-2-ylsulfanyl)hexanamide] | 0% | 5% | 12% | 16% | 33% | > 3000 nM |  |  |
| Nc1ccccc1NC(=O)CCCCCSc1ccc2ccccc2c1 [UPHD-00060, N-(2-aminophenyl)-6-(naphthalen-2-ylsulfanyl)hexanamide] | 5% | 0% | 10% | 20% | 5% | > 3000 nM |  |  |
| O=C(NO)c1ccc(CCSc2ccccc2)cc1 [UPHD-00061, N-hydroxy-4-[2-(phenyl-sulfanyl)ethyl]benzamide] | 5.5% | 0% | 0% | 6% | 37% | > 3000 nM |  |  |
| COC(=O)CCCCCSc1nc2ccccc2s1 [UPHD-00062] | 11% | 12% | 0% | 0% | 0% | > 3000 nM |  |  |
| COC(=O)CCCCCS(=O)(=O)c1ccc2ccccc2c1 [UPHD-00063, methyl 6-(naphthalen-2-ylsulfonyl)hexanoate] | 10% | 5% | 0% | 0% | 6% | > 3000 nM |  |  |
| COC(=O)CCCCCSc1ccccn1 [UPHD-00065, methyl 6-(pyridin-2-ylsulfanyl)hexanoate] | 0% | 20% | 6% | 11% | 29% | > 3000 nM |  |  |
| Nc1ccccc1NC(=O)CCCCCS(=O)(=O)c1ccc2ccccc2c1 [UPHD-00066, N-(2-aminophenyl)-6-(naphthalene-2-sulfonyl)hexanamide] | 0% | 0% | 5% | 11% | 10% | > 3000 nM |  |  |
| O=C(NO)c1ccc(CCSc2ccc(F)cc2)cc1 [UPHD-00067, 4-{2[(4-fluoro-phenyl)sulfanyl]ethyl}-N-hydroxybenzamide] | 17% |  |  |  | 20% | 800 nM |  |  |
| O=C(CCCCCS(=O)(=O)c1ccc2ccccc2c1)NO [UPHD-00069, N-hydroxy-6-(naphthalene-2-sulfonyl)hexanamide] | 0% | 0% | 0% | 0% | 0% | > 3000 nM |  |  |
| O=C(CCCCCSc1nc2ccccc2s1)NO [UPHD-00070, 6-(1,3-benzothiazol-2-ylsulfanyl)-N-hydroxyhexanamide] | 0% | 0% | 0% | 0% | 0% | > 3000 nM |  |  |
| Nc1ccccc1NC(=O)CCCCCSc1nc2ccccc2s1 [UPHD-00071, N-(2-aminophenyl)-6-(1,3-benzothiazol-2-ylsulfanyl)hexanamide] | 12% | 42% | 74% | 26% | 70% |  |  |  |
| Nc1ccccc1NC(=O)CCCCCSc1ncccn1 [UPHD-00072, N-(2-aminophenyl)-6-(pyrimidin-2-ylsulfanyl)hexanamide] | 0% | 0% | 5% | 5% | 5% | > 3000 nM |  |  |
| Nc1ccccc1NC(=O)CCCCCSc1ccccn1 [UPHD-00073, N-(2-aminophenyl)-6-(pyridin-2-ylsulfanyl)hexanamide] | 5% | 10% | 0% | 20% | 30% | > 3000 nM |  |  |
| O=C(CCCCCSc1ccc(F)cc1)Nc1ccccc1O [UPHD-00077, 6-[(4-fluoro-phenyl)sulfanyl]-N-(2-hydroxyphenyl)hexanamide] | 40% | 100% | 100% |  |  | 230 nM | ND (All Dead) | ND (All Dead) |
| Cn1c(SCCCCCC(=O)Nc2ccccc2N)nc2ccccc21 [UPHD-00081, N-(2-aminophenyl)-6-[(1-methyl-1H-1,3-benzodiazol-2-yl)sulfanyl]hexanamide] | 0% | 10% | 10% | 20% | 32% | > 3000 nM |  |  |
| COC(=O)CCCCCSc1ccc(OC)cc1 [UPHD-00090, methyl 6-[(4-methoxy-phenyl)sulfanyl]hexanoate] | 0% | 12% | 25% | 26% | 65% | 2340 nM |  |  |
